Patent US10980805B2, “Aza-pyridone compounds and uses thereof” (Janssen BioPharma, Inc., priority 2013, dated 2021)

Tests used:
[1] = tested on: Influenza strain A549_A/WSN/33 (H1N1); test: Influenza antiviral assay (neuraminidase fluorescence readout); assay type: cell-based, Influenza virus; conditions: Influenza A virus, read-out: % Inhibition (EC50 class, Table 2)
[2] = molecular target: Full length EN PA (influenza PA endonuclease) (Influenza A virus, UniProt P15659); test: EN PA FRET inhibition assay; assay type: biochemical; conditions: FRET probe, mean of a minimum of two independent experiments, read-out: Potency (IC50 class, Table 3)
[3] = tested on: influenza strains B/Malaysia/2506/2004 or B/Victoria/504/2000; test: Influenza B assay (fluorescence-based influenza neuraminidase assay); assay type: cell-based; conditions: Influenza B virus, A549, 20 h; read-out: Potency (EC50)
[4] = tested on: Influenza strain A/Port Chalmers/1/73 (H3N2); test: Combination studies (checker-board, MacSynergy II); assay type: cell-based, Influenza virus; conditions: MDCK cells, three days
[5] = Compound 2 = 21-A (PA Inhibitor)
[6] = Compound 2 = Amantadine (M2 Channel-Inhibitor)
[7] = Compound 2 = Favipiravir (T-705) (Polymerase Inhibitor)
[8] = Compound 2 = Oseltamivir (Neuraminidase-Inhibitor)
[9] = Compound 2 = Peramivir (Neuraminidase-Inhibitor)
[10] = Compound 2 = Ribavirin (Polymerase Inhibitor)
[11] = Compound 2 = Rimantadine (M2 Channel-Inhibitor)
[12] = Compound 2 = Zanamivir (Neuraminidase-Inhibitor)
[13] = Compound 2 = drawing 296 (Polymerase Inhibitor)

`COCCN1C[C@H](C(c2cccc(F)c2)c2cccc(F)c2)n2ncc(=O)c(O)c2C1=O` [Compound 76-A] gave an EC50 [1] of under 20 µM, an IC50 [2] of under 0.25 µM and an EC50 [3] of under 20 µM.
`CC(C)N1C[C@H](C(c2ccccc2)c2ccccc2)n2ncc(=O)c(O)c2C1=O` [Compound 6-A] was tested, and the EC50 [1] was under 20 µM, the IC50 [2] was under 0.25 µM and the EC50 [3] was under 20 µM. For the same molecule, the “Observed Result” value [4, 5] was “additive (volumes in the −25-25 range indicate additive behavior)”, the “Synergy Volume” value [4, 5] was 4.1 μM^2% and the “Observed Result” value [4, 6] was “additive (volumes in the −25-25 range indicate additive behavior)”. For the same molecule, the “Synergy Volume” value [4, 6] was 22.5 μM^2%, the “Synergy Volume” value ([4]; Compound 2 = Consensus Interferon alpha (Immuno-modulator)) was 70 μM^2% and the “Synergy Volume” value [4, 7] was 185 μM^2%. The “Synergy Volume” value ([4]; Compound 2 = Laninamivir (Neuraminidase-Inhibitor)) was 276 μM^2%, the “Synergy Volume” value [4, 8] was 233 μM^2% and the “Synergy Volume” value [4, 9] was 308 μM^2%. The “Synergy Volume” value [4, 10] was 109 μM^2%, the “Observed Result” value [4, 11] was “additive (volumes in the −25-25 range indicate additive behavior)” and the “Synergy Volume” value [4, 11] was 4.6 μM^2%. For the same molecule, the “Synergy Volume” value [4, 12] was 217 μM^2%, the “Observed Result” value [4, 13] was “strongly synergistic” and the “Synergy Volume” value [4, 13] was 440 μM^2%.
In the case of `CC(C)N1C[C@H](C(c2cccc(F)c2)c2cccc(F)c2)n2ncc(=O)c(O)c2C1=O` [Compound 41-A], the EC50 [1] is reported as under 20 µM, the IC50 [2] is reported as under 0.25 µM and the EC50 [3] is reported as under 20 µM.
With `CCN1C[C@H](C(c2cccc(F)c2)c2cccc(F)c2)n2ncc(=O)c(O)c2C1=O` [Compound 21-A] the EC50 [1] was under 20 µM, the IC50 [2] was under 0.25 µM and the EC50 [3] was under 20 µM.
In the case of `CC(C)N1C[C@H](C(c2cccc(Cl)c2)c2cccc(Cl)c2)n2ncc(=O)c(O)c2C1=O` [Compound 68-A], the EC50 [1] is reported as under 20 µM, the IC50 [2] is reported as under 0.25 µM and the EC50 [3] is reported as under 20 µM.
Work on `CCN1C[C@H](C(c2cccc(Cl)c2)c2cccc(Cl)c2)n2ncc(=O)c(O)c2C1=O` [Compound 39-A] yielded an EC50 [1] of under 20 µM, an IC50 [2] of under 0.25 µM and an EC50 [3] of under 20 µM.
`CC(C)C(=O)Oc1c2n(ncc1=O)[C@@H](C1c3cccc(F)c3CCc3c(F)cccc31)CN(C(C)C)C2=O` [Compound 114-A] was tested, and the EC50 [1] was under 20 µM, the IC50 [2] was under 0.25 µM and the “Synergy Volume” value [4, 6] was 86 μM^2%. The “Synergy Volume” value [4, 7] was 132 μM^2%, the “Synergy Volume” value [4, 8] was 205 μM^2% and the “Synergy Volume” value [4, 9] was 100 μM^2%. The “Synergy Volume” value [4, 10] was 55 μM^2%, the “Observed Result” value [4, 11] was “synergistic (volumes in the 25-100 range indicate synergistic behavior)” and the “Synergy Volume” value [4, 11] was 45 μM^2%. For the same molecule, the “Synergy Volume” value [4, 12] was 127 μM^2%.
Work on `CN1C[C@H](C2c3ccccc3CCc3ccccc32)n2ncc(=O)c(O)c2C1=O` [Compound 7-A] yielded an EC50 [1] of under 20 µM, an IC50 [2] of under 0.25 µM and an EC50 [3] of under 20 µM.
In the case of `C[C@@H](N1C[C@H](C(c2ccccc2)c2ccccc2)n2ncc(=O)c(O)c2C1=O)C(F)(F)F` [Compound 110-A], the EC50 [1] is reported as under 20 µM and the IC50 [2] is reported as under 0.25 µM.
Molecule `CCC#Cc1ccn([C@H](c2ccccc2)[C@H]2CN(C)C(=O)c3c(O)c(=O)cnn32)n1` [Compound 122] has an EC50 [1] of under 20 µM and an IC50 [2] of under 0.25 µM.
`CC(C)C(=O)Oc1c2n(ncc1=O)C(C1c3cccc(F)c3CCc3c(F)cccc31)CN(C(C)C)C2=O` (stereo not drawn) [Compound 114] was tested, and the EC50 [1] was under 20 µM and the IC50 [2] was under 0.25 µM.
Work on `CCC#Cc1ccn(C(c2ccccc2)C2CN(C)C(=O)c3c(O)c(=O)cnn32)n1` (stereo not drawn) [Compound 117] yielded an EC50 [1] of under 20 µM and an IC50 [2] of under 0.25 µM.
Work on `CCN1C[C@H](C(c2cccc(F)c2)c2cccc(F)c2)n2ncc(=O)c(OCOC(=O)NCCN3CCOCC3)c2C1=O` [Compound 91-A] yielded an EC50 [1] of 20 to 100 µM and an IC50 [2] of at least 1 µM.
For `CC#Cc1cn(C(c2ccccc2)C2CN(C)C(=O)c3c(O)c(=O)cnn32)cn1` (stereo not drawn) [Compound 111], the EC50 [1] was at least 100 µM and the IC50 [2] was 0.25 to 1 µM.
Work on `CC(C)CN1C[C@H](C(c2ccccc2)c2ccccc2)n2ncc(=O)c(O)c2C1=O` [Compound 98-A] yielded an EC50 [1] of under 20 µM and an IC50 [2] of under 0.25 µM.
